From publication PMC12042115 (mLife, 2025)

Test system: wild‐type BCG cells
Format: cell-based, M. bovis BCG
Settings: up-regulated

O=C(Oc1ccc(Cl)cc1)c1ccc(N2CCOCC2)c([N+](=O)[O-])c1 [GDI‐5755]
Mean_Ratio (GDI5755_3d vs DMSO_3d), protein BCG_3567c (A0A0H3M9P9, Mtb Rv3503c, Ferredoxin, fdxD): 1.7 | Mean_Ratio (GDI5755_3d vs DMSO_3d), protein BCG_0108c (A0A0H3M9Q4, Mtb Rv0077c, Probable oxidoreductase): 1.7 | Mean_Ratio (GDI5755_3d vs DMSO_3d), protein BCG_0192 (A0A0H3M9W8, Mtb Rv0156, proton-translocating NAD(P)(+) transhydrogenase,pntAb): 1.4 | Mean_Ratio (GDI5755_3d vs DMSO_3d), protein BCG_0727 (A0A0H3M257, Mtb Rv0678, Transcriptional regulator, MmpR5): 1.5 | Mean_Ratio (GDI5755_3d vs DMSO_3d), protein BCG_0761 (A0A0H3M268, Mtb Rv0711, Possible arylsulfatase atsA): 2.1 | Mean_Ratio (GDI5755_3d vs DMSO_3d), protein BCG_0463c (A0A0H3M270, Mtb Rv0424c, Uncharacterized protein): 1.4 | Mean_Ratio (GDI5755_3d vs DMSO_3d), protein BCG_0835 (A0A0H3M322, Mtb Rv0784, Deacetylase): 1.4 | Mean_Ratio (GDI5755_3d vs DMSO_3d), protein BCG_0351 (A0A0H3M331, Mtb MRA_0320, Uncharacterized protein): 1.5 | Mean_Ratio (GDI5755_3d vs DMSO_3d), protein BCG_0391 (A0A0H3M380, Mtb Rv0352, Chaperone protein DnaJ): 1.5 | Mean_Ratio (GDI5755_3d vs DMSO_3d), protein BCG_1609 (A0A0H3M480, Mtb Rv1557, conserved transmembrane transport protein mmpL6): 1.6 | Mean_Ratio (GDI5755_3d vs DMSO_3d), protein BCG_2010c (A0A0H3M561, Mtb Rv1993c, DUF1490 family protein): 1.8 | Mean_Ratio (GDI5755_3d vs DMSO_3d), protein BCG_2346c (A0A0H3M622, Mtb Rv2325c, Energy-coupling factor transporter transmembrane protein EcfT): 1.8 | Mean_Ratio (GDI5755_3d vs DMSO_3d), protein BCG_2009c (A0A0H3M639, Mtb Rv1992c, Probable metal cation transporter P-type atpase G ctpG): 1.3 | Mean_Ratio (GDI5755_3d vs DMSO_3d), protein BCG_1549 (A0A0H3M660, Mtb MRA_1496, Conserved membrane protein): 1.5 | Mean_Ratio (GDI5755_3d vs DMSO_3d), protein BCG_2360c (A0A0H3M719, Mtb Rv2338c, Possible molybdopterin biosynthesis protein moeW): 1.4 | Mean_Ratio (GDI5755_3d vs DMSO_3d), protein BCG_2455 (A0A0H3M775, Mtb Rv2436, Ribokinase, rbsK): 1.3 | Mean_Ratio (GDI5755_3d vs DMSO_3d), protein BCG_0465c (A0A0H3M812, Mtb MRA_0431, Possible transmembrane protein): 1.7 | Mean_Ratio (GDI5755_3d vs DMSO_3d), protein BCG_0517 (A0A0H3M881, Mtb Rv0476, Possible conserved transmembrane protein): 1.4 | Mean_Ratio (GDI5755_3d vs DMSO_3d), protein BCG_2934c (A0A0H3M896, Mtb Rv2913c, Possible D-amino acid aminohydrolase): 1.4 | Mean_Ratio (GDI5755_3d vs DMSO_3d), protein BCG_0993 (A0A0H3M955, Mtb Rv0939, Possible bifunctional enzyme: 2-hydroxyhepta-2,4-diene-1,7-dioate isomerase + cyclase/dehydrase): 1.3 | Mean_Ratio (GDI5755_3d vs DMSO_3d), protein BCG_3532 (A0A0H3M969, HNH nuclease domain-containing protein): 1.4 | Mean_Ratio (GDI5755_3d vs DMSO_3d), protein BCG_3038 (A0A0H3MA42, Mtb Rv3016, Probable lipoprotein lpqA): 1.3 | Mean_Ratio (GDI5755_3d vs DMSO_3d), protein BCG_0289c (A0A0H3MA45, Mtb Rv0251c, HSP20 family protein/ Heat stress induced ribosome-binding protein A,acr2): 3.9 | Mean_Ratio (GDI5755_3d vs DMSO_3d), protein BCG_3881 (A0A0H3MA52, Mtb Rv3819, Uncharacterized protein): 1.4 | Mean_Ratio (GDI5755_3d vs DMSO_3d), protein BCG_3758 (A0A0H3MAA8, Mtb Rv3699, Methyltransferase domain-containing protein): 1.3 | Mean_Ratio (GDI5755_3d vs DMSO_3d), protein BCG_0380 (A0A0H3MAC3, Mtb Rv0341, Isoniazid inductible gene protein iniB): 1.7 | Mean_Ratio (GDI5755_3d vs DMSO_3d), protein BCG_0413c (A0A0H3MAE2, Mtb Rv0375c, carbon monoxyde dehydrogenase (Medium chain)): 1.6 | Mean_Ratio (GDI5755_3d vs DMSO_3d), protein BCG_0595c (A0A0H3MAN8, Mtb Rv0550c, Antitoxin VapB3): 1.4 | Mean_Ratio (GDI5755_3d vs DMSO_3d), protein BCG_3239 (A0A0H3MAP0, Conserved hypothetical alanine valine rich protein): 1.4 | Mean_Ratio (GDI5755_3d vs DMSO_3d), protein BCG_3281c (A0A0H3MAS0, Mtb Rv3252c, transmembrane alkane 1-monooxygenase alkB): 1.5 | Mean_Ratio (GDI5755_3d vs DMSO_3d), protein BCG_3298 (A0A0H3MAT3, Mtb Rv3269, peptidoglycan-based cell wall/chaperonin-like protein,pacL1): 2.3 | Mean_Ratio (GDI5755_3d vs DMSO_3d), protein BCG_3319c (A0A0H3MAV3, Mtb Rv3290c, L-lysine 6-transaminase, lat): 1.7 | Mean_Ratio (GDI5755_3d vs DMSO_3d), protein BCG_3928 (A0A0H3MAW6, Mtb Rv3865, ESX-1 secretion-associated protein EspF): 1.6 | Mean_Ratio (GDI5755_3d vs DMSO_3d), protein BCG_0725c (A0A0H3MAX0, Mtb Rv0676c,, conserved transmembrane transport protein mmpL5): 1.6 | Mean_Ratio (GDI5755_3d vs DMSO_3d), protein BCG_0774 (A0A0H3MAY5, Mtb Rv0724, Possible protease IV sppA (Endopeptidase IV)): 1.4 | Mean_Ratio (GDI5755_3d vs DMSO_3d), protein BCG_3476 (A0A0H3MB64, Mtb Rv3406, Probable dioxygenase): 1.6 | Mean_Ratio (GDI5755_3d vs DMSO_3d), protein BCG_1890c (A0A0H3MB87, Mtb Rv1854c, NADH dehydrogenase ndh): 1.5 | Mean_Ratio (GDI5755_3d vs DMSO_3d), protein BCG_3590 (A0A0H3MBE7, Mtb Rv3526, Rieske-type oxygenase): 1.4 | Mean_Ratio (GDI5755_3d vs DMSO_3d), protein BCG_2026 (A0A0H3MBK2, Mtb Rv2009, Antitoxin VapB15, BCG_2026): 1.4 | Mean_Ratio (GDI5755_3d vs DMSO_3d), protein BCG_2056c (A0A0H3MBM9, Mtb MRA_2052, conserved transmembrane protein): 1.4 | Mean_Ratio (GDI5755_3d vs DMSO_3d), protein BCG_1028c (A0A0H3MBR5, Mtb Rv0974c, Probable acetyl-/propionyl-coa carboxylase (Beta subunit) accD2): 1.4 | Mean_Ratio (GDI5755_3d vs DMSO_3d), protein BCG_3824c (A0A0H3MBY6, Mtb Rv3765c, Two component transcriptional regulatory protein，TcrX): 1.4 | Mean_Ratio (GDI5755_3d vs DMSO_3d), protein BCG_1101c (A0A0H3MBZ0, Mtb Rv1043c, Serine protease，BCG_1101c): 1.4 | Mean_Ratio (GDI5755_3d vs DMSO_3d), protein BCG_2613 (A0A0H3MCY6, Mtb Rv2590, Carboxylic acid reductase,fadD9): 1.6 | Mean_Ratio (GDI5755_3d vs DMSO_3d), protein BCG_2656 (A0A0H3MD16, Mtb Rv2629, Uncharacterized protein): 1.4 | Mean_Ratio (GDI5755_3d vs DMSO_3d), protein BCG_3528 (A0A0H3MEV5, Mtb Rv3463, Luciferase-like domain-containing protein): 1.4 | Mean_Ratio (GDI5755_3d vs DMSO_3d), protein BCG_2486c (A0A0H3MFK9, Mtb Rv2466c, DSBA-like thioredoxin domain-containing protein): 1.7 | Mean_Ratio (GDI5755_3d vs DMSO_3d), protein BCG_2502c (A0A0H3MFM6, Mtb Rv2484c, Diacylglycerol O-acyltransferase): 1.4 | Mean_Ratio (GDI5755_3d vs DMSO_3d), protein BCG_2658 (A0A0H3MG12, Mtb Rv2631, tRNA-splicing ligase RtcB): 1.4 | Mean_Ratio (GDI5755_3d vs DMSO_3d), protein BCG_2794c (A0A0H3MGD9, Mtb Rv2777c, Metal-dependent hydrolase): 1.5 | Mean_Ratio (GDI5755_3d vs DMSO_3d), protein BCG_2984 (A0A0H3MGS1, Mtb Rv2963, integral membrane protein): 1.5 | Mean_Ratio (GDI5755_3d vs DMSO_3d), protein BCG_3119c (A0A0H3MH35, Mtb Rv3094c, Hydroxylase): 1.4 | Mean_Ratio (GDI5755_3d vs DMSO_3d), protein BCG_3299 (A0A0H3MHJ0, Mtb Rv3270, metal cation-transporting P-type atpase C ctpC): 1.5 | Mean_Ratio (GDI5755_3d vs DMSO_3d), protein BCG_3591 (A0A0H3MID2, Mtb Rv3527, Uncharacterized protein): 1.6 | Mean_Ratio (GDI5755_3d vs DMSO_3d), protein BCG_3917c (A0A0H3MJE2, Mtb Rv3854c, Monooxygenase ethA): 1.5 | Mean_Ratio (GDI5755_3d vs DMSO_3d), protein BCG_0095 (A1KEN2, Mtb Rv0064, UPF0182 protein BCG_0095): 1.4 | Mean_Ratio (GDI5755_3d vs DMSO_3d), protein BCG_0181 (A1KEW5, Mtb Rv0145, S-adenosyl-L-methionine-dependent methyltransferase BCG_0181): 1.8 | Mean_Ratio (GDI5755_3d vs DMSO_3d), protein BCG_0182 (A1KEW6, Mtb Rv0146, Putative S-adenosyl-L-methionine-dependent methyltransferase): 2.8 | Mean_Ratio (GDI5755_3d vs DMSO_3d), protein BCG_0248 (A1KF31, Mtb Rv0211, Phosphoenolpyruvate carboxykinase [GTP], pckG): 2.3 | Mean_Ratio (GDI5755_3d vs DMSO_3d), protein BCG_0389 (A1KFH2, Mtb Rv0350, Chaperone protein DnaK/Heat shock protein 70): 1.5 | Mean_Ratio (GDI5755_3d vs DMSO_3d), protein BCG_0390 (A1KFH3, Mtb Rv0351, Protein GrpE/HSP-70 cofactor): 1.4 | Mean_Ratio (GDI5755_3d vs DMSO_3d), protein BCG_0516 (A1KFU9, Mtb Rv0475, Heparin-binding hemagglutinin): 1.3 | Mean_Ratio (GDI5755_3d vs DMSO_3d), protein BCG_0605c (A1KG37, Mtb Rv0560c, Benzoquinone methyltransferase/Rv0560c/htm): 2.5 | Mean_Ratio (GDI5755_3d vs DMSO_3d), protein BCG_0883 (A1KGW3, Mtb Rv0830, S-adenosyl-L-methionine-dependent methyltransferase): 1.9 | Mean_Ratio (GDI5755_3d vs DMSO_3d), protein BCG_1036 (A1KHB7, Mtb Rv0981, Response regulator MprA): 1.4 | Mean_Ratio (GDI5755_3d vs DMSO_3d), protein BCG_1284 (A1KI12, Mtb Rv1224, Sec-independent protein translocase protein TatB): 1.4
